Data reported in publication doi:10.1101/2024.12.09.627639v1 (biorxiv, 2024).

Target: FFA1 (GPR40) (Homo sapiens, UniProt O14842)
Assay: aequorin calcium luminescence assay, CHO cells
Assay type: cell-based

Chain of FFA1 (GPR40) (O14842 whole entry): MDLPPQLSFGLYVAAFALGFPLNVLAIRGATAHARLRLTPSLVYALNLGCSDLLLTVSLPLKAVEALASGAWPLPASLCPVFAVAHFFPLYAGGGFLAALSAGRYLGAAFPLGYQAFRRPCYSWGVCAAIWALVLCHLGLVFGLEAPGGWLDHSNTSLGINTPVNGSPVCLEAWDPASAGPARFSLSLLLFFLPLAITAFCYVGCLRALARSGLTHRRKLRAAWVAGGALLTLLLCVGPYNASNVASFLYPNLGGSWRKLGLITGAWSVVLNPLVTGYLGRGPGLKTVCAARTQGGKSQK

Compound: CC/C=C\C/C=C\C/C=C\C/C=C\C/C=C\C/C=C\CCC(=O)O [DHA]
- EC50: 40 µM
